Experimental data taken from ChEMBL document CHEMBL1697781, “Assessment of the health effects of chemicals in humans: II. Construction of an adverse effects database for QSAR modeling” (Curr Drug Discov Technol, 2004).

Columns and labels:
Conditions in all cases: human; call rule not given here
Hepatotoxicity [1] = assay: FDA HLAED, liver enzyme composite activity
Hepatotoxicity [2] = assay: FDA HLAED, alkaline phosphatase increase
Hepatotoxicity [3] = assay: FDA HLAED, serum glutamic oxaloacetic transaminase (SGOT) increase
Hepatotoxicity [4] = assay: FDA HLAED, serum glutamic pyruvic transaminase (SGPT) increase
Hepatotoxicity [5] = assay: FDA HLAED, lactate dehydrogenase (LDH) increase
Hepatotoxicity [6] = assay: FDA HLAED, gamma-glutamyl transferase (GGT) increase
Throughout, for GGT Increase - Index Value: reference of the scale not given here.
Throughout, for LDH Increase - Index Value: reference of the scale not given here.

COc1ccc(Cl)cc1C(=O)NCCc1ccc(S(=O)(=O)NC(=O)NC2CCCCC2)cc1 [GLYBURIDE]
Composite Activity - Active (Hepatotoxicity [1]): 0 | Composite Activity - Marginal (Hepatotoxicity [1]): 1 | Composite Activity - Score (Hepatotoxicity [1]): Inactive | Alkaline Phosphatase Increase - Activity Score (Hepatotoxicity [2]): Marginally Active | Alkaline Phosphatase Increase - Index Value (Hepatotoxicity [2]): 3.4 | Alkaline Phosphatase Increase - Number of Reports (Hepatotoxicity [2]): >= 4 | SGOT Increase - Activity Score (Hepatotoxicity [3]): Inactive | SGOT Increase - Index Value (Hepatotoxicity [3]): 1.8 | SGOT Increase - Number of Reports (Hepatotoxicity [3]): >= 4 | SGPT Increase - Activity Score (Hepatotoxicity [4]): Inactive | SGPT Increase - Index Value (Hepatotoxicity [4]): 2.2 | SGPT Increase - Number of Reports (Hepatotoxicity [4]): >= 4 | LDH Increase - Activity Score (Hepatotoxicity [5]): Inactive | LDH Increase - Index Value (Hepatotoxicity [5]): 0.8 | LDH Increase - Number of Reports (Hepatotoxicity [5]): >= 4 | GGT Increase - Activity Score (Hepatotoxicity [6]): Inactive | GGT Increase - Index Value (Hepatotoxicity [6]): 0 | GGT Increase - Number of Reports (Hepatotoxicity [6]): < 4

CCCCc1oc2ccccc2c1C(=O)c1cc(I)c(OCCN(CC)CC)c(I)c1 [AMIODARONE]
Composite Activity - Active (Hepatotoxicity [1]; Liver): 0 | Composite Activity - Marginal (Hepatotoxicity [1]; Liver): 0 | Composite Activity - Score (Hepatotoxicity [1]; Liver): Inactive | Alkaline Phosphatase Increase - Activity Score (Hepatotoxicity [2]): Inactive | Alkaline Phosphatase Increase - Index Value (Hepatotoxicity [2]): 0 | Alkaline Phosphatase Increase - Number of Reports (Hepatotoxicity [2]): < 4 | SGOT Increase - Activity Score (Hepatotoxicity [3]): Inactive | SGOT Increase - Index Value (Hepatotoxicity [3]): 0 | SGOT Increase - Number of Reports (Hepatotoxicity [3]): < 4 | SGPT Increase - Activity Score (Hepatotoxicity [4]): Inactive | SGPT Increase - Index Value (Hepatotoxicity [4]): 0 | SGPT Increase - Number of Reports (Hepatotoxicity [4]): < 4 | LDH Increase - Activity Score (Hepatotoxicity [5]): Inactive | LDH Increase - Index Value (Hepatotoxicity [5]): 0 | LDH Increase - Number of Reports (Hepatotoxicity [5]): < 4 | GGT Increase - Activity Score (Hepatotoxicity [6]): Inactive | GGT Increase - Index Value (Hepatotoxicity [6]): 0 | GGT Increase - Number of Reports (Hepatotoxicity [6]): < 4

COC(=O)C1=C(C)NC(C)=C(C(=O)OCC(C)C)C1c1ccccc1[N+](=O)[O-] (configuration not stated) [NISOLDIPINE]
Composite Activity - Active (Hepatotoxicity [1]): 0 | Composite Activity - Marginal (Hepatotoxicity [1]): 0 | Composite Activity - Score (Hepatotoxicity [1]): Inactive | Alkaline Phosphatase Increase - Activity Score (Hepatotoxicity [2]): Inactive | Alkaline Phosphatase Increase - Index Value (Hepatotoxicity [2]): 0 | Alkaline Phosphatase Increase - Number of Reports (Hepatotoxicity [2]): < 4 | SGOT Increase - Activity Score (Hepatotoxicity [3]): Inactive | SGOT Increase - Index Value (Hepatotoxicity [3]): 3.2 | SGOT Increase - Number of Reports (Hepatotoxicity [3]): < 4 | SGPT Increase - Activity Score (Hepatotoxicity [4]): Inactive | SGPT Increase - Index Value (Hepatotoxicity [4]): 1.6 | SGPT Increase - Number of Reports (Hepatotoxicity [4]): < 4 | LDH Increase - Activity Score (Hepatotoxicity [5]): Inactive | LDH Increase - Index Value (Hepatotoxicity [5]): 0 | LDH Increase - Number of Reports (Hepatotoxicity [5]): < 4 | GGT Increase - Activity Score (Hepatotoxicity [6]): Inactive | GGT Increase - Index Value (Hepatotoxicity [6]): 0 | GGT Increase - Number of Reports (Hepatotoxicity [6]): < 4

CN1CCN2c3ncccc3Cc3ccccc3C2C1 (configuration not stated) [MIRTAZAPINE]
Composite Activity - Active (Hepatotoxicity [1]): 1 | Composite Activity - Marginal (Hepatotoxicity [1]): 2 | Composite Activity - Score (Hepatotoxicity [1]): Inactive | Alkaline Phosphatase Increase - Activity Score (Hepatotoxicity [2]): Inactive | Alkaline Phosphatase Increase - Index Value (Hepatotoxicity [2]): 0.9 | Alkaline Phosphatase Increase - Number of Reports (Hepatotoxicity [2]): < 4 | SGOT Increase - Activity Score (Hepatotoxicity [3]): Marginally Active | SGOT Increase - Index Value (Hepatotoxicity [3]): 3.6 | SGOT Increase - Number of Reports (Hepatotoxicity [3]): >= 4 | SGPT Increase - Activity Score (Hepatotoxicity [4]): Active | SGPT Increase - Index Value (Hepatotoxicity [4]): 6.4 | SGPT Increase - Number of Reports (Hepatotoxicity [4]): >= 4 | LDH Increase - Activity Score (Hepatotoxicity [5]): Inactive | LDH Increase - Index Value (Hepatotoxicity [5]): 0.9 | LDH Increase - Number of Reports (Hepatotoxicity [5]): < 4 | GGT Increase - Activity Score (Hepatotoxicity [6]): Marginally Active | GGT Increase - Index Value (Hepatotoxicity [6]): 3.6 | GGT Increase - Number of Reports (Hepatotoxicity [6]): < 4
